Tests used:
[1] = target: T1, cloned human 5HT2B receptor (Homo sapiens, UniProt P41595); assay: 5HT2B receptor binding assay, [125I]DOI; details: CHO membranes
T1 construct: expressed in transfected cells; host or cells: CHO cells
Method: For the 5HT2B receptor binding assay, [^125I](±)[…] (DOI) (0.2 nM) was incubated for 15 min at 37° C. with membranes prepared from Chinese hamster ovary cells heterologously expressing the cloned human 5HT2B receptor according to the method of Choi et al., 1994, FEBS Lett 352:393-399. Various concentrations of test compound were added and bound radioactivity was determined by scintillation counting. Non-specific binding was determined in the presence of 1.0 μM unlabeled DOI. The Ki value for the test compound was determined using standard methods.

[2] = target: T2, cloned human 5HT2C receptor (Homo sapiens, UniProt P28335); assay: 5HT2C receptor binding assay, [3H]mesulergine; details: CHO membranes
T2 construct: expressed in transfected cells; host or cells: CHO cells
T2 sequence (P28335 33-458): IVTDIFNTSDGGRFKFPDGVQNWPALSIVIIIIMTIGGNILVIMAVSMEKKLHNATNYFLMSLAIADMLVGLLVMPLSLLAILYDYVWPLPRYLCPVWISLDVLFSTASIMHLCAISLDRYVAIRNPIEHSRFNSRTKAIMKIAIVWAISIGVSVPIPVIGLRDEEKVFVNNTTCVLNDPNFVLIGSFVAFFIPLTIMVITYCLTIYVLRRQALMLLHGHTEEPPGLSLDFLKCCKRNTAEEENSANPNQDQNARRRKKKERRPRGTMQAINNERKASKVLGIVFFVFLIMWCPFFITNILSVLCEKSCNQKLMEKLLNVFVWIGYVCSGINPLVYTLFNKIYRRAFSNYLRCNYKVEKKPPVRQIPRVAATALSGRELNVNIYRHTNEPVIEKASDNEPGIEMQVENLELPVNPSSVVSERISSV
Method: For the 5HT2C receptor binding assay, [^3H]mesulergine (1.0 nM) was incubated for 60 min at 37° C. with membranes prepared from Chinese hamster ovary cells heterologously expressing the cloned human 5-HT2C receptor according to the method of Stam et al., 1994, Eur. J. Pharmacol. 269:339-348. Various concentrations of test compound were added and bound radioactivity was determined by scintillation counting. Non-specific binding was determined in the presence of 10 μM RS102221. The Ki value for the test compound was determined using standard methods.

[3] = test system: rat 50° C. hot plate model; assay: rat 50° C. hot plate assay; assay type: in vivo; details: for level of antinociception, positive control: 3 mg/kg SC, 30 min
Method: Protocol. Rats were treated with vehicle, 30 mg/kg IP of (−)-beloxepin, or 30 mg/kg IP of (+)-beloxepin and then were placed on a hot plate (50° C.) 30, 60, or 120 minutes after administration of the vehicle or beloxepin enantiomer. Rats treated with 3 mg/kg SC of morphine and tested 30 min post-treatment were used as a positive control in these experiments.

[4] = target: T3, human recombinant CYP2D6 (Homo sapiens, UniProt P10635); assay: CYP2D6 inhibition, MAMC substrate; assay type: in vitro ADME
T3 construct: purchased BD Bioscience
Method: Protocol. […] The source of the enzyme was microsomes containing human recombinant CYP2D6 obtained from BD Bioscience. Conversion of MAMC to 7-hydroxy-4-(aminomethyl)coumarin was measured using a PerkinElmer Fusion with a 390 nm excitation filter and a 460 nm emission filter.

[5] = test system: rat hindpaw incision model; assay: rat hindpaw incisional pain model, tactile allodynia; assay type: in vivo; details: 30 mg/kg IP, 24 hours post-surgery
Method: Protocol. A time course experiment was also performed with (−)-beloxepin in the hindpaw incision model. At 24 hours post-surgery, rats received vehicle or (−)-beloxepin (30 mg/kg IP). Rats were tested for tactile allodynia at 30, 60, 120 and 240 minutes after administration of (−)-beloxepin.
Protocol. Another time course experiment was performed with (+)-beloxepin in the hindpaw incision model. At 24 hours post-surgery, rats received vehicle or (+)-beloxepin (30 mg/kg IP). Rats were tested for tactile allodynia at 30, 60, 120 and 240 minutes after administration of (+)-beloxepin.

[6] = target: T4, cloned human NE transporter (hNET) (Homo sapiens, UniProt P23975); assay: NE transporter binding assay, [3H]nisoxetine
T4 construct: expressed in transfected cells; host or cells: CHO cells
Method: Protocols. For the NE transporter binding assay, [^3H]nisoxetine (1.0 nM) was incubated with various concentrations of test compounds for 2 hours at 4° C. with membranes prepared from Chinese hamster ovary cells (CHO) cells heterologously expressing the cloned human NE transporter (hNET). Bound radioactivity was determined by scintillation spectroscopy.

[7] = target: T5, cloned human 5HT2A receptor (Homo sapiens, UniProt P28223); assay: 5HT2A receptor binding assay, [3H]ketanserin; details: HEK-293 membranes
T5 construct: expressed in transfected cells; host or cells: HEK-293 cells
Method: For the 5HT2A receptor binding assay, [^3H]ketanserin (0.5 nM) was incubated for 60 min at 22° C. with membranes prepared from HEK-293 cells heterologously expressing the cloned human 5-HT2A receptor according to the method of Bonhaus et al., 1995, Brit. J. Pharmacol. 115:622-628. Various concentrations of test compound were added and bound radioactivity was determined by scintillation counting. Non-specific binding was determined in the presence of 1.0 μM unlabeled ketanserin. The Ki value for the test compound was determined using standard methods.

[8] = test system: L5 SNL rats; assay: L5 Single Nerve Ligation model of neuropathic pain, tactile allodynia (von Frey); assay type: in vivo, rat
Method: Protocol. The antiallodynic activity of (−)-beloxepin was tested in vivo using the L5—Single Nerve Ligation model of non-nociceptive neuropathic pain as described in LaBuda & Little, 2005, J. Neurosci. Methods 144:175-181. The test animals were placed in a Plexiglas chamber (10 cm×20 cm×25 cm) and habituated for 15 minutes. The chamber was positioned on top of a mesh screen so that von Frey monofilaments could be presented to the plantar surface of both hindpaws. Measurement of tactile sensitivity for each hind paw were obtained using the up/down method (Dixon, 1980, Annu. Rev. Pharmacol. Toxicol. 20:441-462) with seven Frey monofilaments (0.4, 1, 2, 4, 6, 8 and 15 grams). Each trial started with a von Frey force of 2 grams delivered to the right hind paw for approximately 1-2 seconds and then the left hind paw. If there was no withdrawal response, the next higher force was delivered. If there was a response, the next lower force was delivered. This procedure was performed until no response was made at the highest force (15 grams) or until four stimuli were administered following the initial response. The 50% paw withdrawal threshold for each paw was calculated using the following formula: [Xth]log=[vFr]log+ky, where [vFr] is the force of the last von Frey used, k=0.2249 which is the average interval (in log units) between the von Frey monofilaments, and y is a value that depends upon the pattern of withdrawal responses (Dixon, 1980, supra). […] Testing for tactile sensitivity was performed twice and the mean 50% withdrawal value assigned as the tactile sensitivity for the right and left paws for each animal.
Results. The antiallodynic effects produced by (−)-beloxepin (30 mg/kg IP) and (+)-beloxepin (30 mg/kg IP) in L5 SNL rats 8 days post surgery are illustrated in FIG. 1. In this experiment, at 8 days post surgery, rats were treated with vehicle or beloxepin enantiomers (30 mg/kg IP) and tested for tactile allodynia at 30 min post treatment. […] No side effects were observed following treatment with either enantiomer.
The antiallodynic effects produced by (−)-beloxepin (30 mg/kg IP) in L5 SNL rats 14 days post surgery are illustrated in FIG. 2. In this experiment, at 14 days post surgery, rats were treated with vehicle or (−)-beloxepin and tested for tactile allodynia at 30, 60, 120 and 240 min post treatment. Vehicle treated rats were tested at 30 min post treatment.
Protocol. A time course experiment was performed with (−)-beloxepin (60 mg/kg PO) in L5 SNL rats at 7 days post-surgery. Rats were tested at 30, 60, 120, and 240 minutes post-drug.
Protocol. A time course experiment was also performed with (+)-beloxepin (60 mg/kg PO) in L5 SNL rats at 14 days post-surgery. Rats were tested at 30, 60, 120, and 240 minutes post-drug.

[9] = test system: pain intensity in study completers; details: cited from earlier work
[10] = 30 mg/kg IP, 8 days post surgery, 30 min post treatment

T4 sequence (P23975 whole entry): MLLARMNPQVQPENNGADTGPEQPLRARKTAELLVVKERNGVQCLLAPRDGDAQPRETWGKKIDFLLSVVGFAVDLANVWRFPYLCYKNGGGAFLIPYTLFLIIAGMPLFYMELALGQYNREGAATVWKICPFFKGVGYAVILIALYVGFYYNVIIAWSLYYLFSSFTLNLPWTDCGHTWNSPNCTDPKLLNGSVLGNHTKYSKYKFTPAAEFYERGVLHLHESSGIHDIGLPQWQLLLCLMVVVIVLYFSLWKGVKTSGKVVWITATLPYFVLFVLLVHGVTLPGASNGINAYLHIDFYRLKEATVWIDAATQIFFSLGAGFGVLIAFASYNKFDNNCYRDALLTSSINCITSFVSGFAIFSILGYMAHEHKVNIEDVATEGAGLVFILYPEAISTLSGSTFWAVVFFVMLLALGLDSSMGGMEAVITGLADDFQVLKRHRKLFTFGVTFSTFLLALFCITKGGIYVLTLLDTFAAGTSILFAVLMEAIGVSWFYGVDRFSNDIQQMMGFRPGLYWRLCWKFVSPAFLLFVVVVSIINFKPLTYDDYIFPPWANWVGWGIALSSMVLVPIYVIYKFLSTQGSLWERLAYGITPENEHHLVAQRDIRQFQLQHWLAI
T3 sequence (P10635 whole entry): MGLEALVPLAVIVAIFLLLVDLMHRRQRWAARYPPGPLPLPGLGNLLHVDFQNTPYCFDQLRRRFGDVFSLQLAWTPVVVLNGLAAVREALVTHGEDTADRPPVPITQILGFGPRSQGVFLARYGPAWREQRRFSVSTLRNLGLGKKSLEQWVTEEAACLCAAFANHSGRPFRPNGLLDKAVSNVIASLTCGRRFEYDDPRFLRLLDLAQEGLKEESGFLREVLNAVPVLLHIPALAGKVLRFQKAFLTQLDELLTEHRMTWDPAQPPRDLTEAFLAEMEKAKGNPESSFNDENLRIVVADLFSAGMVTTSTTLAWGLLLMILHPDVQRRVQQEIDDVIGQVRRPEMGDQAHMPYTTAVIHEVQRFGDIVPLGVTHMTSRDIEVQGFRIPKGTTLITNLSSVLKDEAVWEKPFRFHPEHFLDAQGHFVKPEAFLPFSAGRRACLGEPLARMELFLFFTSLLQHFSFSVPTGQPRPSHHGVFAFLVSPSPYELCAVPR
T5 sequence (P28223 whole entry): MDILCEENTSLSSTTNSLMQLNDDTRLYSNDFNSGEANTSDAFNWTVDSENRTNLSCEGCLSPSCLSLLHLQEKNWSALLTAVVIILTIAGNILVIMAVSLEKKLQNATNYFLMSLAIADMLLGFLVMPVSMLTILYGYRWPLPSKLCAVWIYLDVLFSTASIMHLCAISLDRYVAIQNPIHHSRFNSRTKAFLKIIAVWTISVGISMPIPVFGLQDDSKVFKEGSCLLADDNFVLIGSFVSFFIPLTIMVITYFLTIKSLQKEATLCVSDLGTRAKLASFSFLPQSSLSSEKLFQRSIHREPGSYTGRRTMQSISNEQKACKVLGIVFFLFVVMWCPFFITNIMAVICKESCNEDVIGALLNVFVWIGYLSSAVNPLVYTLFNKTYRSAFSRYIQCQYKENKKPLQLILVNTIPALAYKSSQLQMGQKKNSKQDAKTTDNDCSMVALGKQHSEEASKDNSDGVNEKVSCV
T1 sequence (P41595 whole entry): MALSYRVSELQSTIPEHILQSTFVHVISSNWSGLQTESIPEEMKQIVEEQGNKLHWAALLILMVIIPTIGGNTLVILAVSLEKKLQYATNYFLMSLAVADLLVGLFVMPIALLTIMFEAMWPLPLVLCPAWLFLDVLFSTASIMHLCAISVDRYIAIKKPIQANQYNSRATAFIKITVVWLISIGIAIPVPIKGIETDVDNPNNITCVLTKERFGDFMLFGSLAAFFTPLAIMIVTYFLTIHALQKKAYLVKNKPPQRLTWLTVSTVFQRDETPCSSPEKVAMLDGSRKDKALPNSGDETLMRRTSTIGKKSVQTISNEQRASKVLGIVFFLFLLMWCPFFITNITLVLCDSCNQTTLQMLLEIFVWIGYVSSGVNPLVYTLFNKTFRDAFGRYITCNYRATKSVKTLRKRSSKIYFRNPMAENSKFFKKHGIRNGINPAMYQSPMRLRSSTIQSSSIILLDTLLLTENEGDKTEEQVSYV

Structure (SMILES): Cc1cccc2c1Oc1ccccc1C1(O)CCN(C)CC21 (single isomer, unassigned; (-)) [(−)-beloxepin]
- Ki [1]: > 10 µM
- Ki [2]: > 10 µM
- antinociceptive activity ([3]; 30 mg/kg IP, 30, 60, 120 min): robust antinociceptive activity at 30, 60, and 120 minutes after treatment
- peak antinociception ([3]; 30 mg/kg IP, 30 min post-treatment): 79±10 % MPE
- IC50 [4]: 4.37 µM
- hindpaw withdrawal threshold, % of the threshold value for vehicle treated rats ([5]; 30 minute time point): 426%
- maximum hindpaw withdrawal threshold ([5]; 30 minute time point): ~19 grams
- antiallodynic effect ([5]; tested 30, 60, 120, 240 min): significant antiallodynic effect at the 30 and 120 minute time point
- higher affinity at the NET than the (+) enantiomer ([6]; (−) vs (+) enantiomer): approximately 8 fold
- Ki ([6]; membranes of CHO cells expressing hNET, read-out: NET Ki): 0.39 µM
- Ki [7]: > 10 µM
- antiallodynia, % of the threshold of vehicle-treated L5 SNL rats [8, 10]: 444%
- antiallodynic effect [8, 10]: significant antiallodynia
- maximal efficacy, % of the threshold of vehicle-treated rats ([8]; 30 mg/kg IP, 14 days post surgery): 635%
- antiallodynic effect ([8]; 30 mg/kg IP, 14 days post surgery, tested 30, 60, 120, 240 min): significant antiallodynic effects at the 30 and 60 min time points
- antiallodynic effect ([8]; 60 mg/kg PO, 7 days post-surgery, tested 30, 60, 120, 240 min): significant antiallodynic effects at the 60 and 120 minute time points

Structure (SMILES): CNCCCC12CCC(c3ccccc31)c1ccccc12 [maprotiline]
- reduction in pain intensity [9]: 45%

Structure (SMILES): CN1CC[C@]23c4c5ccc(O)c4O[C@H]2[C@@H](O)C=C[C@H]3[C@H]1C5 [morphine, reference compound]
- level of antinociception, positive control ([3]; 'in these experiments'): 61±7 % MPE
- level of antinociception, positive control ([3]; (+)-beloxepin experiment (FIG. 8)): 85±7 % MPE
- level of antinociception, positive control ([3]; (−)-beloxepin experiment (FIG. 7)): 65±11 % MPE

Structure (SMILES): Fc1ccc([C@@H]2CCNC[C@H]2COc2ccc3c(c2)OCO3)cc1 [paroxetine]
- reduction in pain intensity [9]: 26%

Reference: US20090233957A1, “(-)-BELOXEPIN AND METHODS FOR ITS SYNTHESIS AND USE” (priority 2008, published 2009)
